# Laboratory results as given in ChEMBL document CHEMBL4680234, “Antibacterial AZT derivative regulates metastasis of breast cancer cells” (Eur J Med Chem, 2020).
# Activity calls are given as the source filed them. No cut-off for these calls is given here.
# Assays:
# Bacillus subtilis [1] = test: Antibacterial activity against Bacillus subtilis KCTC 3068 assessed as reduction in bacterial growth incubated for 18 to 22 hrs by spectrophotometry based broth microdilution method; type: functional; conditions: time 18-22 hrs, read-out: MIC100
# Pseudomonas aeruginosa [2] = test: Antibacterial activity against Pseudomonas aeruginosa KCTC 1637 assessed as reduction in bacterial growth incubated for 18 to 22 hrs by spectrophotometry based broth microdilution method; type: functional; conditions: time 18-22 hrs, read-out: MIC100
# Escherichia coli [3] = test: Antibacterial activity against Escherichia coli KCTC 1682 assessed as reduction in bacterial growth incubated for 18 to 22 hrs by spectrophotometry based broth microdilution method; type: functional; conditions: time 18-22 hrs, read-out: MIC100
# Staphylococcus aureus [4] = test: Antibacterial activity against Staphylococcus aureus KCTC 1621 assessed as reduction in bacterial growth incubated for 18 to 22 hrs by spectrophotometry based broth microdilution method; type: functional; conditions: time 18-22 hrs, read-out: MIC100
# Escherichia coli [5] = test: Potency index, ratio of melittin MIC to test compound MIC for antibacterial activity against Escherichia coli KCTC 1682; type: functional
# Pseudomonas aeruginosa [6] = test: Potency index, ratio of melittin MIC to test compound MIC for antibacterial activity against Pseudomonas aeruginosa KCTC 1637; type: functional
# Staphylococcus aureus [7] = test: Potency index, ratio of melittin MIC to test compound MIC for antibacterial activity against Staphylococcus aureus KCTC 1621; type: functional
# Bacillus subtilis [8] = test: Potency index, ratio of melittin MIC to test compound MIC for antibacterial activity against Bacillus subtilis KCTC 3068; type: functional
# Staphylococcus aureus [9] = test: Antimicrobial activity against methicillin-resistant Staphylococcus aureus CCARM 3095 assessed as reduction in microbial growth incubated for 18 to 24 hrs by broth microdilution method; type: functional; conditions: time 18-24 hrs
# Staphylococcus aureus [10] = test: Antimicrobial activity against methicillin-resistant Staphylococcus aureus CCARM 3089 assessed as reduction in microbial growth incubated for 18 to 24 hrs by broth microdilution method; type: functional; conditions: time 18-24 hrs
# Staphylococcus aureus [11] = test: Antimicrobial activity against methicillin-resistant Staphylococcus aureus CCARM 3090 assessed as reduction in microbial growth incubated for 18 to 24 hrs by broth microdilution method; type: functional; conditions: time 18-24 hrs
# [12] = Therapeutic index, ratio of MHC for sheep RBC to geometric mean of peptide MIC for Bacillus subtilis KCTC 3068; type: toxicity; conditions: sheep red blood cells (erythrocytes), read-out: TI
# [13] = Therapeutic index, ratio of MHC for sheep RBC to geometric mean of peptide MIC for Escherichia coli KCTC 1682; type: toxicity; conditions: sheep red blood cells (erythrocytes), read-out: TI
# [14] = Therapeutic index, ratio of MHC for sheep RBC to geometric mean of peptide MIC for Pseudomonas aeruginosa KCTC 1637; type: toxicity; conditions: sheep red blood cells (erythrocytes), read-out: TI
# Erythrocyte [15] = test: Hemolytic activity in sheep RBC at 16 ug/ml measured after 2 hrs by ELISA; type: cell-based, Ovis aries; conditions: dose 16 µg/ml
# [16] = Therapeutic index, ratio of MHC for sheep RBC to geometric mean of peptide MIC for Staphylococcus aureus KCTC 1621; type: toxicity; conditions: sheep red blood cells (erythrocytes), read-out: TI
# Erythrocyte [17] = test: Hemolytic activity in sheep RBC measured after 2 hrs by ELISA; type: ADME, cell-based, Ovis aries
# Staphylococcus aureus [18] = test: Potency index, ratio of melittin MIC to test compound MIC for antimicrobial activity against methicillin-resistant Staphylococcus aureus CCARM 3089; type: functional
# Pseudomonas aeruginosa [19] = test: Potency index, ratio of melittin MIC to test compound MIC for antimicrobial activity against multidrug-resistant Pseudomonas aeruginosa CCARM 2095 assessed as reduction in microbial growth
# MDA-MB-231 [20] = test: Inhibition of cell motility in human MDA-MB-231 cells assessed as reduction in cell migration distance at 40 uM measured at 30 mins interval for 24 hrs by time-lapse […] analysis; type: functional, cell-based
# MDA-MB-231 [21] = test: Cytotoxicity against human MDA-MB-231 cells assessed as reduction in cell viability at 50 uM measured after 48 hrs by EZCytox cell viability assay; type: cell-based; conditions: mda-mb-231, 48 h
# MDA-MB-231 [22] = test: Antiinvasive activity in human MDA-MB-231 cells at 40 uM measured after 16 hrs using crystal violet staining microscopy based Boyden chamber assay; type: functional, cell-based
# MDA-MB-231 [23] = test: Inhibition of actin polymerization in human MDA-MB-231 cells assessed as reduction in lamellipodium formation at 20 to 40 uM measured after 6 hrs by Texas Red-conjugated phalloidin staining based fluorescence microscopic analysis; type: cell-based; conditions: dose 20-40 µM
# MDA-MB-231 [24] = test: Antimigratory activity in human MDA-MB-231 cells assessed as reduction in wound closure at 40 uM measured after 18 to 36 hrs by microscopic analysis; type: functional, cell-based; conditions: time 18-36 hrs
# Pseudomonas aeruginosa [25] = test: Potency index, ratio of melittin MIC to test compound MIC for antimicrobial activity against multidrug-resistant Pseudomonas aeruginosa CCARM 2109 assessed as reduction in microbial growth
# Staphylococcus aureus [26] = test: Potency index, ratio of melittin MIC to test compound MIC for antimicrobial activity against methicillin-resistant Staphylococcus aureus CCARM 3090; type: functional
# Staphylococcus aureus [27] = test: Potency index, ratio of melittin MIC to test compound MIC for antimicrobial activity against methicillin-resistant Staphylococcus aureus CCARM 3095; type: functional
MIC (Bacillus subtilis [1]) [µg/mL],MIC (Pseudomonas aeruginosa [2]) [µg/mL],MIC (Escherichia coli [3]) [µg/mL],MIC (Staphylococcus aureus [4]) [µg/mL],SMILES,Ratio (Pseudomonas aeruginosa [6]),Ratio (Staphylococcus aureus [7]),Ratio (Bacillus subtilis [8]),MIC (Staphylococcus aureus [9]) [µg/mL],MIC (Staphylococcus aureus [10]) [µg/mL],MIC (Staphylococcus aureus [11]) [µg/mL],other results
4,8,64,16,Cc1cn([C@H]2C[C@H](NC(=O)Cc3cccc4ccccc34)[C@@H](CNC(=O)Cc3cccc4ccccc34)O2)c(=O)nc1N(CCCN)CCCN,2,2,2,–,–,–,Ratio (Escherichia coli [5]): 4
64,64,> 64,> 64,Cc1cn([C@H]2C[C@H](NC(=O)C3CCCCC3)[C@@H](CNC(=O)C3CCCCC3)O2)c(=O)nc1N(CCCN)CCCN,–,–,–,–,–,–,–
–,–,–,–,O=C(O)c1cn(C2CC2)c2cc(N3CCNCC3)c(F)cc2c1=O [CIPROFLOXACIN],–,–,–,512,512,512,–
64,8,> 64,> 64,CCCCCC(=O)NC[C@H]1O[C@@H](n2cc(C)c(N(CCCN)CCCN)nc2=O)C[C@@H]1NC(=O)CCCCC,–,–,–,–,–,–,–
2,4,32,4,Cc1cn([C@H]2C[C@H](NC(=O)CC34CC5CC(CC(C5)C3)C4)[C@@H](CNC(=O)CC34CC5CC(CC(C5)C3)C4)O2)c(=O)nc1N(CCCN)CCCN,4,2,4,–,–,–,selectivity ratio [12]: 5; selectivity ratio [13]: 5; selectivity ratio [14]: 5; Activity (Erythrocyte [15]): Non-Toxic; selectivity ratio [16]: 5; MHC (Erythrocyte [17]): 52 µg/mL
8,16,> 64,8,Cc1cn([C@H]2C[C@H](NC(=O)CCCc3ccccc3)[C@@H](CNC(=O)CCCc3ccccc3)O2)c(=O)nc1N(CCCNC(=N)N)CCCNC(=N)N,–,–,–,–,–,–,–
> 64,> 64,> 64,> 64,Cc1cn([C@H]2C[C@H](NC(=O)C3CCCCC3)[C@@H](CNC(=O)C3CCCCC3)O2)c(=O)nc1NCCNC(=N)N,–,–,–,–,–,–,–
–,–,–,–,Cc1onc(-c2ccccc2)c1C(=O)N[C@@H]1C(=O)N2[C@@H]1SC(C)(C)[C@@H]2C(=O)O [OXACILLIN],–,–,–,256,256,512,–
4,16,64,8,Cc1cn([C@H]2C[C@H](NC(=O)Cc3cccc4ccccc34)[C@@H](CNC(=O)Cc3cccc4ccccc34)O2)c(=O)nc1N(CCCNC(=N)N)CCCNC(=N)N,–,–,2,–,–,–,–

SMILES,MIC (Bacillus subtilis [1]) [µg/mL],MIC (Pseudomonas aeruginosa [2]) [µg/mL],MIC (Escherichia coli [3]) [µg/mL],MIC (Staphylococcus aureus [4]) [µg/mL],Ratio (Pseudomonas aeruginosa [6]),Ratio (Staphylococcus aureus [7]),Ratio (Bacillus subtilis [8]),MIC (Staphylococcus aureus [9]) [µg/mL],MIC (Staphylococcus aureus [10]) [µg/mL],MIC (Staphylococcus aureus [11]) [µg/mL],other results
Cc1cn([C@H]2C[C@H](NC(=O)CC34CC5CC(CC(C5)C3)C4)[C@@H](CNC(=O)CC34CC5CC(CC(C5)C3)C4)O2)c(=O)nc1N(CCCNC(=N)N)CCCNC(=N)N,2,4,16,2,4,4,4,8,8,8,Ratio (Staphylococcus aureus [18]): 2; Ratio (Pseudomonas aeruginosa [19]): 2; selectivity ratio [12]: 4.2; Activity (MDA-MB-231 [20]): Active; selectivity ratio [13]: 4.2; Activity (MDA-MB-231 [21]): Non-Toxic; Activity (MDA-MB-231 [22]): Active; inhibition (MDA-MB-231 [23]): Active; Activity (MDA-MB-231 [24]): Active; selectivity ratio [14]: 4.2; Ratio (Pseudomonas aeruginosa [25]): 2; Ratio (Staphylococcus aureus [26]): 2; Activity (Erythrocyte [15]): Non-Toxic; selectivity ratio [16]: 4.2; MHC (Erythrocyte [17]): 25 µg/mL; Ratio (Staphylococcus aureus [27]): 2
